Reference: patent US20230024384A1, “C[…] COMPOUND FOR TREATING FRAGILE X SYNDROME OR RELATED DEVELOPMENTAL DISORDERS” (NEUROVENTI, priority 2020, published 2023)

Key:
Format in all cases: in vivo, mouse
[1] = system: Fmr1-deficient animal model (fragile X syndrome); assay: three-chamber test in Fmr1-deficient animal model; conditions: Fmr1 KO mice, lisuride intraperitoneally 50 ug/kg, test 30 minutes after administration, FIG. 1
Description: (§1) Purchased a 5-week-old Fmr1 knockout mouse (Jackson Laboratory, USA) weighing about 22 g to 24 g, and acclimatized to an environment with a temperature of 23±2° C. and humidity of 55±10% and a light-dark cycle of 12 hours while allowing them to freely consume water and feed (Experimental Animal Center, Konkuk University). As experimental animals, wild-type (WT) with normal FMRP expression and male KO mice lacking FMRP (fragile X mental retardation protein) expression (fragile X syndrome; FXS) were used. Dosing and experiments were performed according to the age of the week. Dosing was performed at the same time. Behavioral experiments were conducted 30 minutes after administration. […] Meanwhile, 0.25 (v/v) % DMSO was intraperitoneally administered to the control group.
If the animal model spent more time with a novel mouse rather than a familiar mouse, it is judged to be social. The test animal was exposed to the stimulus mouse for 10 minutes, and to a new stimulus mouse (novel) for another 10 minutes. In this case, the old mouse is called familiar and the new mouse is called a novel mouse. The time the test mouse explored each stimulus mouse was measured and expressed as %. As a result of the experiment, it was confirmed that the wild type spent more time with the novel mouse than the familiar mouse, indicating normal sociability. […]

[2] = system: Fmr1-deficient animal model (fragile X syndrome); assay: home-cage test in Fmr1-deficient animal model; conditions: Fmr1 KO mice, lisuride once daily for 5 days, sniffing measured for 15 minutes, FIG. 2
Description: as §1
A home-cage test evaluates sociability in the breeding cage removing the possible confounders of stress due to abrupt changes in the environment. After raising the group of animals to be tested together, a wire cage was placed inside the home cage and allowed the animals to acclimatize for 30 minutes. A stimulus mouse was placed in a wire cage and the duration of sniffing by the subject mice to the wire cage was measured for 15 minutes.

[3] = system: animal model treated with MK-801 in wild-type mice; assay: pre-wave suppression test in MK-801-treated wild-type mice; conditions: lisuride intraperitoneally after MK-801, FIG. 6
Description: (§2) Pre-pulse suppression (%)=100−[(startle response to pre-stimulus+stimulus)/(start-up response to stimulus)]*100 [Equation 1]
(§3) Startle response was confirmed in an animal model treated with apomorphine or MK-801 in wild-type mice. […] Thereafter, sensorimotor gating was evaluated through a pre-wave suppression test (converted using Equation 1 above).

[4] = system: Fmr1-deficient animal model (fragile X syndrome); assay: pre-pulse (pre-wave) suppression test in Fmr1-deficient animal model; conditions: Fmr1 KO mice, lisuride intraperitoneally, FIG. 3
Description: as §1
The startle response was confirmed using an Fmr1-deficient animal model. […] Thereafter, sensorimotor gating was evaluated through a pre-wave suppression test (converted using Equation 1 below).
as §2

[5] = system: animal model treated with apomorphine in wild-type mice; assay: pre-wave suppression test in apomorphine-treated wild-type mice; conditions: lisuride intraperitoneally after apomorphine, FIG. 5
Description: as §2, §3

Structure (SMILES): CCN(CC)C(=O)N[C@H]1C=C2c3cccc4[nH]cc(c34)C[C@H]2N(C)C1 [lisuride, 1,1-Diethyl-3-(7-methyl-4,6,6a,7,8,9-hexahydro-indolo [4,3-fg]quinolin-9-yl)-urea]
- sociability: time spent with novel mouse versus familiar mouse [1]: more time was spent with the novel mouse than with the familiar mouse
- sniffing time to wire cage with stimulus mouse (sociability) [2]: sniffing time increased again
- pre-pulse suppression (sensorimotor gating) [3]: pre-pulse suppression was restored
- pre-pulse suppression (sensorimotor gating) [4]: pre-pulse suppression was restored
- pre-pulse suppression (sensorimotor gating) [5]: pre-pulse suppression was restored
